Where two headings read alike, the source gives them in different places.
Tests used:
PDE4 = PDE4 inhibition, scintillation proximity assay (SPA); type: biochemical;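 for PDE4 Inhibitory Activity (concentration for the inhibition rate of 50%): A below 100 nM B 100 to below 1000 nM C 1000 nM or more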
Procedure, shortened: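 Compound pre-diluted 1:10 in 50 mM Tris-HCl pH 7.4, 8.3 mM MgCl2, 1.7 mM EGTA, 3 mg/mL BSA, then incubated with PDE4 and [2,8-3H]-cAMP for 120 min at room temperature. Product captured on ZnSO4-containing YSi-SPA beads for 15 min; radioactivity counted against no-enzyme blank and DMSO control.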

[1] = Hepatic metabolic stability (rat liver microsome method); type: in vitro ADME; settings: rat liver microsomes 0.5 mg/mL, test substance 1 μM, NADPH 1 mM, 37° C., 30 minutes
Procedure, shortened: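 Test compound (1 μM) preincubated with rat liver microsomes (0.5 mg/mL) in 100 mM potassium phosphate pH 7.4 at 37° C; NADPH (1 mM) started reaction, acetonitrile stopped it at 0 and 30 min. LC-MS quantitation; % remaining = 30-min/0-min ×100, graded A ≥75%, B 60–<75%, C 45–<60%, D <45%.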

[2] = scintillation proximity assay, class symbols, read-out: PDE4 Inhibitory Activity
[3] = scintillation proximity assay (SPA), evaluated as classes A, B, C, read-out: PDE4 Inhibitory Activity (concentration for the inhibition rate of 50%)

Q: With COCCNC(=O)c1ccc(-c2nccs2)c2oc(N3CC4CC(C3)N4)nc12 [Example 353, 2-(3,6-diazabicyclo [3.1.1]heptan-3-yl)-N-(2-methoxyethyl)-7-(thiazol-2-yl) benzo[d] oxazole-4-carboxamide] as the molecule, how does the IC50 (PDE4; [2]) read?
A: < 100 nM

Q: What about the “Residual ratio (% remaining for 30-minute reaction)” value [1] of the same molecule?
A: A (a % remaining rate of 75% or more)

Q: Which IC50 (PDE4; [2]) does the source give for c1cnc(Oc2ccc(-c3nccs3)c3oc(N4CC5CC(C4)N5)nc23)cn1 [Example 339, 2-(3,6-diazabicyclo[3.1.1]heptan-3-yl)-4-(pyrazin-2-yloxy)-7-(thiazol-2-yl)benzo [d]oxazole] here?
A: < 100 nM

Q: What about the “Residual ratio (% remaining for 30-minute reaction)” value [1] of the same molecule?
A: B (60% or more and less than 75%)

Q: Which results are given for CC(O)C(F)(F)Oc1ccc(-c2nccs2)c2oc(N3CC4CC(C3)N4)nc12 (single isomer, unassigned) [Example 252, 1-((2-(3,6-Diazabicyclo[3.1.1]heptan-3-yl)-7-(thiazol-2-yl)benzo[d]oxazol-4-yl)oxy)-1,1-difluoropropan-2-ol]?
A: IC50 (PDE4; [3]): < 100 nM; Residual ratio (% remaining for 30-minute reaction) [1]: A (a % remaining rate of 75% or more)

Q: What does the source list for NC(=O)c1ccc(-c2nccs2)c2oc(N3CC4CC(C3)N4)nc12 [Example 354, 2-(3,6-diazabicyclo [3.1.1]heptan-3-yl)-7-(thiazol-2-yl)benzo[d] oxazole-4-carboxamide]?
A: IC50 (PDE4; [2]): < 100 nM; Residual ratio (% remaining for 30-minute reaction) [1]: A (a % remaining rate of 75% or more)

Q: With N#Cc1ccc(-c2nccs2)c2oc(N3CC4CC(C3)N4)nc12 [Example 335, 2-(3,6-diazabicyclo [3.1.1]heptan-3-yl)-7-(thiazol-2-yl)benzo [d]oxazole-4-carbonitrile] as the molecule, how does the IC50 (PDE4; [2]) read?
A: < 100 nM

Q: What about the “Residual ratio (% remaining for 30-minute reaction)” value [1] of the same molecule?
A: A (a % remaining rate of 75% or more)

Q: With OCc1cccnc1Oc1ccc(-c2nccs2)c2oc(N3CC4CC(C3)N4)nc12 [Example 376, (2-((2-(3,6-diazabicyclo[3.1.1]heptan-3-yl)-7-(thiazol-2-yl)benzo[d]oxazol-4-yl)oxy)pyridin-3-yl)methanol] as the molecule, how does the IC50 (PDE4; [2]) read?
A: < 100 nM

Q: What about the “Residual ratio (% remaining for 30-minute reaction)” value [1] of the same molecule?
A: A (a % remaining rate of 75% or more)

Q: What does the source list for FC(F)(F)Oc1ccc(Oc2ccc(-c3nccs3)c3oc(N4CC5CC(C4)N5)nc23)nc1 [Example 343]?
A: IC50 (PDE4; [2]): < 100 nM; Residual ratio (% remaining for 30-minute reaction) [1]: B (60% or more and less than 75%)

Q: Which IC50 (PDE4; [3]) does the source give for OC(c1cc(-c2nccs2)c2oc(N3CC4CCC(C3)N4)nc2c1)C(F)F (stereo not drawn) [Example 104, 1-(2-(3,8-Diazabicyclo[3.2.1]octan-3-yl)-7-(thiazol-2-yl)benzo[d]oxazol-5-yl)-2,2-difluoroethan-1-ol] here?
A: < 100 nM

Q: What about the “Residual ratio (% remaining for 30-minute reaction)” value [1] of the same molecule?
A: B (60% or more and less than 75%)

Q: With CC(C)(O)C(F)(F)Oc1ccc(-c2nccs2)c2oc(N3CC4CC(C3)N4)nc12 [Example 248, 1-((2-(3,6-Diazabicyclo[3.1.1]heptan-3-yl)-7-(thiazol-2-yl)benzo[d]oxazol-4-yl)oxy)-1,1-difluoro-2-methylpropan-2-ol] as the molecule, how does the IC50 (PDE4; [3]) read?
A: < 100 nM

Q: And the “Residual ratio (% remaining for 30-minute reaction)” value [1]?
A: A (a % remaining rate of 75% or more)

Q: With O=S(=O)(c1ccc(-c2nccs2)c2oc(N3CC4CC(C3)N4)nc12)N1CCOCC1 [Example 391, 2-(3,6-diazabicyclo [3.1.1]heptan-3-yl)-4-(morpholino-sulfonyl)-7-(thiazol-2-yl)benzo [d]oxazole] as the molecule, how does the IC50 (PDE4; [2]) read?
A: < 100 nM

Q: What about the “Residual ratio (% remaining for 30-minute reaction)” value [1] of the same molecule?
A: B (60% or more and less than 75%)

Q: For OCC(F)(F)Oc1ccc(-c2nccs2)c2oc(N3CC4CC(C3)N4)nc12 [Example 249, 2-((2-(3,6-Diazabicyclo[3.1.1]heptan-3-yl)-7-(thiazol-2-yl)benzo[d]oxazol-4-yl)oxy)-2,2-difluoroethan-1-ol], which IC50 (PDE4; [3]) is on record?
A: < 100 nM

Q: What about the “Residual ratio (% remaining for 30-minute reaction)” value [1] of the same molecule?
A: B (60% or more and less than 75%)

Q: Which IC50 (PDE4; [3]) does the source give for FC(F)(F)C(OCc1nnn[nH]1)c1ccc(-c2nccs2)c2oc(N3CC4CC(C3)N4)nc12 (stereo not drawn) [Example 231, 4-(1-((1H-tetrazol-5-yl)methoxy)-2,2,2-trifluoroethyl)-2-(3,6-diazabicyclo[3.1.1]heptan-3-yl)-7-(thiazol-2-yl)benzo[d]oxazole] here?
A: < 100 nM

Q: And the “Residual ratio (% remaining for 30-minute reaction)” value [1]?
A: A (a % remaining rate of 75% or more)

Q: For c1csc(-c2ccc(OC3CCOCC3)c3nc(N4CC5CC(C4)N5)oc23)n1 [Example 294, 2-(3,6-Diazabicyclo[3.1.1]heptan-3-yl)-4-((tetrahydro-2H-pyran-4-yl)oxy)-7-(thiazol-2-yl)benzo[d]oxazole], which IC50 (PDE4; [3]) is on record?
A: < 100 nM

Q: And the “Residual ratio (% remaining for 30-minute reaction)” value [1]?
A: A (a % remaining rate of 75% or more)

Q: What does the source list for O=S(=O)(CCO)c1ccc(-c2nccs2)c2oc(N3CC4CC(C3)N4)nc12 [Example 350, 2-((2-(3,6-diazabicyclo[3.1.1]heptan-3-yl)-7-(thiazol-2-yl)benzo [d]oxazol-4-yl)sulfonyl)ethan-1-ol]?
A: IC50 (PDE4; [2]): < 100 nM; Residual ratio (% remaining for 30-minute reaction) [1]: A (a % remaining rate of 75% or more)

Q: Which results are given for O=C(c1ccc(-c2nccs2)c2oc(N3CC4CC(C3)N4)nc12)N1CCOCC1 [Example 359, (2-(3,6-diazabicyclo [3.1.1]heptan-3-yl)-7-(thiazol-2-yl)benzo[d]oxazol-4-yl) (morpholino) methanone]?
A: IC50 (PDE4; [2]): 100 to 1000 nM; Residual ratio (% remaining for 30-minute reaction) [1]: A (a % remaining rate of 75% or more)

Q: For CS(=O)(=O)c1ccc(-c2nccs2)c2oc(N3CC4CC(C3)N4)nc12 [Example 347, 2-(3,6-diazabicyclo[3.1.1]heptan-3-yl)-4-(methylsulfonyl)-7-(thiazol-2-yl)benzo [d]oxazole], which IC50 (PDE4; [2]) is on record?
A: < 100 nM

Q: What about the “Residual ratio (% remaining for 30-minute reaction)” value [1] of the same molecule?
A: A (a % remaining rate of 75% or more)

Q: For CC(C)(O)C(F)(F)Oc1ccc(-c2ccsn2)c2oc(N3CC4CCC(C3)N4)nc12 [Example 331, 1-((2-(3,8-diazabicyclo [3.2.1]octan-3-yl)-7-(isothiazol-3-yl)benzo [d]oxazol-4-yl)oxy)-1,1-difluoro-2-methylpropan-2-ol], which IC50 (PDE4; [2]) is on record?
A: < 100 nM

Q: And the “Residual ratio (% remaining for 30-minute reaction)” value [1]?
A: B (60% or more and less than 75%)

Q: For CC(C)(O)C(F)(F)Oc1ccc(-c2ccccn2)c2oc(N3CC4CCC(C3)N4)nc12 [Example 317, 1-((2-(3,8-Diazabicyclo[3.2.1]octan-3-yl)-7-(pyridin-2-yl)benzo[d]oxazol-4-yl)oxy)-1,1-difluoro-2-methylpropan-2-ol], which IC50 (PDE4; [3]) is on record?
A: < 100 nM

Q: What about the “Residual ratio (% remaining for 30-minute reaction)” value [1] of the same molecule?
A: A (a % remaining rate of 75% or more)

Q: With O=S(=O)(NCCO)c1ccc(-c2nccs2)c2oc(N3CC4CC(C3)N4)nc12 [Example 385, 2-(3,6-diazabicyclo[3.1.1]heptan-3-yl)-N-(2-hydroxyethyl)-7-(thiazol-2-yl) benzo[d]oxazole-4-sulfonamide] as the molecule, how does the IC50 (PDE4; [2]) read?
A: < 100 nM

Q: What about the “Residual ratio (% remaining for 30-minute reaction)” value [1] of the same molecule?
A: A (a % remaining rate of 75% or more)

Q: What does the source list for CC(C)(O)C(F)(F)Oc1ccc(-n2cccn2)c2oc(N3CC4CC(C3)N4)nc12 [Example 304, 1-((2-(3,6-Diazabicyclo[3.1.1]heptan-3-yl)-7-(1H-pyrazol-1-yl)benzo[d]oxazol-4-yl)oxy)-1,1-difluoro-2-methylpropan-2-ol]?
A: IC50 (PDE4; [3]): < 100 nM; Residual ratio (% remaining for 30-minute reaction) [1]: A (a % remaining rate of 75% or more)

Q: For c1csc(-c2ccc(O[C@@H]3CCOC3)c3nc(N4CC5CC(C4)N5)oc23)n1 [Example 324, 2-(3,6-Diazabicyclo[3.1.1]heptan-3-yl)-4-(((R)-tetrahydrofuran-3-yl)oxy)-7-(thiazol-2-yl)benzo[d]oxazole], which IC50 (PDE4; [3]) is on record?
A: < 100 nM

Q: What about the “Residual ratio (% remaining for 30-minute reaction)” value [1] of the same molecule?
A: A (a % remaining rate of 75% or more)
